From patent publication US20130059814A1, “ANTI-INFLAMMATORY DERMATOLOGICAL COMPOSITION COMPRISING CORTICOSTEROIDS AND HYALURONATE FRAGMENTS, AND USES THEREOF” (priority 2007, published 2013)

Legend:
Hairless SKH mice = experiment: Skin atrophy protocol: dermis-epidermis thickness after topical corticosteroid with or without HA fragments; assay type: in vivo
From the text: Hairless SKH mice received twice daily for 5 days a topical treatment on the back with a steroid (0.05% clobetasol propionate or 0.1% desonide) with or without HA fragments (with a molecular weight comprised between 20 and 500 kDa, and obtained by the method including the treatment steps with ultrasound and filtering as described above). These fragments will be designated in the following examples by HAF. Dermal and epidermal atrophy and the concentration of skin hyaluronate were respectively determined by measuring the dermis-epidermis thickness in optical microscopy and by ELISA.
The epidermal and cutaneous (distance between the granular layer and the sweating glands) thicknesses were measured by an ocular micrometer. Ten measurements were made per mouse. The prevention index is the ratio between the control treated with clobetasol propionate (PC) alone and the PC +HAF composition.
The epidermal thickness was measured with an ocular micrometer after treatment with different desonide concentrations. Ten measurements were made per mouse. The prevention index is the ratio, at a determined corticosteroid concentration, between the control treated by the corticosteroid alone and by the corticosteroid composition+HAF.
The epidermal thickness was measured with an ocular micrometer after treatment with different corticosteroids. Ten measurements were made per mouse. The prevention index is the ratio between the control treated by the corticosteroid alone and the corresponding composition comprising the HAFs.
The non-treated hyaluronic acid, the fragments obtained by action of hyaluronidase, as well as the HAFs were compared for their preventive effects. The epidermal thickness was measured with an ocular micrometer. Ten measurements were made per mouse. The prevention index is the ratio between the control treated with the corticosteroid alone and with each corticosteroid composition+HAF.

C57B1/6 mice = experiment: Inflammation induced by TPA in the ear of mice: epidermis and dermis thickness, dermal cellularity; assay type: in vivo; settings: 0.005% TPA on ears, PC 0.05%, HAF 1%, 4 days
Experimental: (§1) Skin inflammation was induced by topical application of 0.005% TPA (12-o-tetradecanoylphorbol-13-acetate) in acetone, on the ears of C57B1/6 mice; the control animals received the same volume of acetone. Clobetasol propionate (0.05%) and the HAFs (1%) were dissolved in 100 μL of carrier, and were applied together with TPA for 4 days; the control animals received the same volume of carrier. The inflammation was determined by measuring the thickness of the ears with a clip and the dermis-epidermis thickness in optical microscopy and by assaying myeloperoxidase activity. The animals were sacrificed 24 hrs after the last application. 6 mm biopsies were sampled, frozen in liquid nitrogen and then stored at −70° C. until the day of the analysis. The remainder of the tissue was set with formol and analyzed by immunohistology.
The epidermal inflammation induced by the application of Phorbol TPA ester was measured, after application of TPA, and then after treatment with clobetasol propionate, and after treatment with the composition comprising clobetasol propionate and HAFs. Ten measurements were made per mouse. The anti-inflammation index is the ratio between the control treated with TPA, and with the composition TPA+PC or TPA+PC+HAF.
The dermal inflammation induced by applying Phorbol TPA ester was measured, after application of TPA, and then after treatment with clobetasol propionate and after treatment with the composition comprising clobetasol propionate and HAFs. Ten measurements were made per mouse, the results are grouped in the Table 6 below. The anti-inflammation index in the ratio between the control treated with TPA, and with the association TPA+PC or TPA+PC+HAF.
Dermal cellularity induced by applying Phorbol TPA ester was measured, after application of TPA, and then after treatment with clobetasol propionate, and after treatment with the composition comprising clobetasol propionate and HAFs. Ten measurements were made per mouse. The anti-inflammation index is the ratio between the control treated with TPA, and with the association TPA+PC or TPA+PC+HAF.

myeloperoxidase = experiment: Myeloperoxidase activity in supernatant of homogenates of TPA-treated ear biopsies; assay type: in vivo, mice; settings: 0.005% TPA on ears, PC 0.05%, HAF 1%, 4 days
Experimental: as §1
The myeloperoxidase activity was determined in the supernatant of the homogenates of the ear biopsies. […] The enzymatic activity of myeloperoxidase was determined according to the method of Bradley et al., modified for using the photometric plate reader. […] The optical density was measured at 450 nm. […] The expression of CD44, CD44v3 and pro-HB-EGF was analyzed by immunohistochemistry and by Western blotting according to methods already described (PLoS Med 3 (12): e493, 2006). […]

hairless SKH1 mice = settings: JEADV 19: 124, 2005; cited from earlier work
[1] = Table 3: corticosteroid 0.05%, with or without HAF

Structure (SMILES): CCC(=O)O[C@]1(C(=O)CCl)[C@@H](C)C[C@H]2[C@@H]3CCC4=CC(=O)C=C[C@]4(C)[C@@]3(F)[C@@H](O)C[C@@]21C [PC, clobetasol propionate]
- Cutaneous thickness % of non-treated control (Hairless SKH mice; PC 0.05%, HAF 1% where present, distance between granular layer and sweating glands): 56 % of non-treated control
- Epidermal thickness % of non-treated control (Hairless SKH mice; PC 0.05%, HAF 1% where present, topical on the back twice daily for 5 days): 33 % of non-treated control
- Epidermal thickness % of non-treated control (Hairless SKH mice; [1]): 28 % of non-treated control
- Epidermal thickness % of non-treated control (Hairless SKH mice; Table 4: 0.05% Clobetasol alone or with HA form): 28 % of non-treated control

Structure (SMILES): CCCCCCCCCCCCCC(=O)O[C@@H]1[C@@H](C)[C@@]2(O)[C@@H](C=C(CO)C[C@]3(O)C(=O)C(C)=C[C@@H]23)[C@@H]2C(C)(C)[C@]12OC(C)=O [TPA, 12-o-tetradecanoylphorbol-13-acetate]
- Dermal cellularity % of control (C57B1/6 mice): 789 % of control
- Dermis inflammation % of non-treated control (C57B1/6 mice): 226 % of non-treated control
- Epidermis inflammation % of control (C57B1/6 mice): 438 % of control
- myeloperoxidase % of control (myeloperoxidase): 3273 % of control

Structure (SMILES): CC1=C(/C=C/C(C)=C/C=C/C(C)=C/C=O)C(C)(C)CCC1 [retinaldehyde]
- Prevention of epidermal atrophy induced by clobetasol propionate (hairless SKH1 mice): prevents epidermal atrophy induced by a corticosteroid, clobetasol propionate

Structure (SMILES): C[C@H]1C[C@H]2[C@@H]3CCC4=CC(=O)C=C[C@]4(C)[C@@]3(F)[C@@H](O)C[C@]2(C)[C@@]1(O)C(=O)CO [Betamethasone]
- Epidermal thickness % of non-treated control (Hairless SKH mice; [1]): 53 % of non-treated control

Structure (SMILES): CC1(C)O[C@@H]2C[C@H]3[C@@H]4CCC5=CC(=O)C=C[C@]5(C)[C@H]4[C@@H](O)C[C@]3(C)[C@]2(C(=O)CO)O1 [Desonide, desonide]
- Epidermal thickness % of non-treated control (Hairless SKH mice; Desonide 0.025%, HAF 0 or 1%): 72 % of non-treated control
- Epidermal thickness % of non-treated control (Hairless SKH mice; Desonide 0.05%, HAF 0 or 1%): 62 % of non-treated control
- Epidermal thickness % of non-treated control (Hairless SKH mice; Desonide 0.075%, HAF 0): 55 % of non-treated control
- Epidermal thickness % of non-treated control (Hairless SKH mice; Desonide 0.1%, HAF 0 or 1%): 46 % of non-treated control
- Epidermal thickness % of non-treated control (Hairless SKH mice; [1]): 62 % of non-treated control
- Epidermal thickness % of non-treated control (Hairless SKH mice; Table 4: Desonide 0.1% alone or with HA form): 46 % of non-treated control
